These results are taken from patent publication US20040235723A1, “Method of screening abc protein promoter/inhibitor” (priority 2001, published 2004).

Each structure is given as a SMILES string. Where two headings read alike, the source gives them in different places.

In data set [1] the test system is W303-1A + pYI. As to the kind of experiment: MIC on SD-uracil agar medium, wild strain W303-1A + pYI. In kind it is cell-based. As to conditions: Saccharomyces cerevisiae, 48 h.
In data set [2] the test system is KHW1 + pYI. Description: MIC on SD-uracil agar medium, SYR1 gene disruption strain KHW1 + pYI. In kind it is cell-based, Saccharomyces cerevisiae. As to conditions: for MIC: Saccharomyces cerevisiae, 48 h; for Increase of sensitivity of SYR1 gene disruption strain (KHW1+pYI) compared with wild strain (W303-1A+pYI): ratio of MIC values. The protocol:
(§1) A double gene disruption strain KHW2 deficient in PDR5 (Δsyr1/erg3::HIS Δpdr5::LEU2), a double gene disruption strain KHW4 deficient in SNQ2 which is another drug-discharging ABC transporter of yeast (Δpdr5::LEU2 Δsnq2::HIS3) and a triple gene disruption strain […] deficient in PDR5 and SNQ2 (Δsyr1/erg3::HIS3 Δpdr5::LEU2 Δsnq2::HIS3) were prepared from an SYR1/ERG3 gene disruption strain KHW1 of Saccharomyces cerevisiae W303-1A (wild type) (Δsyr1/erg3::HIS3). Preparation of multiple gene disruption strains was carried out in such a manner that a host strain was transformed by a plasmid for disruption of gene where LEU2 gene or […] gene was a marker and the disrupted strain where each drug-resistant gene was disrupted by insertion of LEU2 or HIS3 gene was selected using recovery of requirement of leucine or histidine as an index. Each of the multiple gene disruption strains was confirmed by an increase in sensitivity to cycloheximide and cerulenin while gene disruption of PDR5 and SNQ2 was confirmed by a southern hybridization.

Data set [3] concerns KHW3 + pYI. Description: MIC on SD-uracil agar medium, triple gene disruption strain KHW3 + pYI. In kind it is cell-based, Saccharomyces cerevisiae. As to conditions: for MIC: Saccharomyces cerevisiae, 48 h; for Increase of sensitivity of triple gene disruption strain KHW3 compared with wild strain: ratio of MIC values. The procedure:
as §1

Data set [4] concerns KHW3 + pYI-PDR5. Description: MIC on SD-uracil agar medium, KHW3 + pYI-PDR5. The conditions noted are these: Saccharomyces cerevisiae, 48 h. In kind it is cell-based. The protocol: as §1
The test system of data set [5] is KHW4 + pYI. Description: MIC on SD-uracil agar medium, KHW4 + pYI. In kind it is cell-based. The conditions noted are these: Saccharomyces cerevisiae, 48 h. The protocol: as §1
The test system of data set [6] is KHW4 + pYI-PDR5. As to the kind of experiment: MIC on SD-uracil agar medium, KHW4 + pYI-PDR5. In kind it is cell-based. The conditions noted are these: Saccharomyces cerevisiae, 48 h. The protocol: as §1
Data set [7] addresses T1, PDR5 transporter (Saccharomyces cerevisiae, UniProt P33302).
T1 construct: expressed in transfected cells; host or cells: Saccharomyces cerevisiae KHW3 (Δsyr1/erg3::HIS3 Δpdr5::LEU2 Δsnq2::HIS3) carrying plasmid pYI-PDR5
As to the kind of experiment: Agar well diffusion growth inhibition assay for PDR5 transporter inhibition, KHW3+pYI-PDR5. The conditions noted are these: cycloheximide 0.04 μg/ml or cerulenin 0.4 μg/ml, without FK 506. In kind it is cell-based. The protocol:
(§2) Yeast cells grown on an SD-uracil medium were suspended in a soft agar dissolved in 4 ml at 50° C. so as to make 1×10^5 cells/ml, mixed after addition of a drug such as cycloheximide or cerulenin if necessary and layered on an SD-uracil medium containing the drug of the same concentration. After the soft agar was solidified, a pore of 8 mm diameter was formed on a part of the soft agar and 50 μl of the test substance were poured thereinto. The plate was incubated at 32° C. for 48 hours and […] of growth inhibition ring around the well was measured whereupon activity of the test substance for inhibiting the discharge of cycloheximide and cerulenin by the PDR transporter was evaluated.
(§3) Unit for the growth inhibition activity was defined as follows. Thus, when a triple gene disruption strain KHW3 (Δsyr1/erg3::HIS3 Δpdr5::LEU2 Δsnq2::HIS3) was used and diameter of the inhibition ring measured by the above agar well diffusion method was plotted to logarithm of cycloheximide concentration where cycloheximide of 8-200 μg/ml was used as a standard substance, it was noted there was a linear relation as shown in FIG. 1. Growth inhibition activity showing an inhibition ring of 20 mm to KHW3 containing pYI was defined as 20 inhibition units per ml (IU/ml) and, using the above-mentioned standard curve of cycloheximide, inhibition units of test substances were calculated. […]

In data set [8] the test system is KHW3+pYI. As to the kind of experiment: Agar well diffusion growth inhibition assay, cytotoxicity check on KHW3+pYI. In kind it is cell-based, Saccharomyces cerevisiae. The conditions noted are these: FK 506 solution 12.5 μg/ml, 50 μl per well; 32° C., 48 hours; no drug in medium. The protocol: as §2, §3

Broadly, the MIC is the least concentration at which growth counts as inhibited.

T1 sequence (P33302 whole entry): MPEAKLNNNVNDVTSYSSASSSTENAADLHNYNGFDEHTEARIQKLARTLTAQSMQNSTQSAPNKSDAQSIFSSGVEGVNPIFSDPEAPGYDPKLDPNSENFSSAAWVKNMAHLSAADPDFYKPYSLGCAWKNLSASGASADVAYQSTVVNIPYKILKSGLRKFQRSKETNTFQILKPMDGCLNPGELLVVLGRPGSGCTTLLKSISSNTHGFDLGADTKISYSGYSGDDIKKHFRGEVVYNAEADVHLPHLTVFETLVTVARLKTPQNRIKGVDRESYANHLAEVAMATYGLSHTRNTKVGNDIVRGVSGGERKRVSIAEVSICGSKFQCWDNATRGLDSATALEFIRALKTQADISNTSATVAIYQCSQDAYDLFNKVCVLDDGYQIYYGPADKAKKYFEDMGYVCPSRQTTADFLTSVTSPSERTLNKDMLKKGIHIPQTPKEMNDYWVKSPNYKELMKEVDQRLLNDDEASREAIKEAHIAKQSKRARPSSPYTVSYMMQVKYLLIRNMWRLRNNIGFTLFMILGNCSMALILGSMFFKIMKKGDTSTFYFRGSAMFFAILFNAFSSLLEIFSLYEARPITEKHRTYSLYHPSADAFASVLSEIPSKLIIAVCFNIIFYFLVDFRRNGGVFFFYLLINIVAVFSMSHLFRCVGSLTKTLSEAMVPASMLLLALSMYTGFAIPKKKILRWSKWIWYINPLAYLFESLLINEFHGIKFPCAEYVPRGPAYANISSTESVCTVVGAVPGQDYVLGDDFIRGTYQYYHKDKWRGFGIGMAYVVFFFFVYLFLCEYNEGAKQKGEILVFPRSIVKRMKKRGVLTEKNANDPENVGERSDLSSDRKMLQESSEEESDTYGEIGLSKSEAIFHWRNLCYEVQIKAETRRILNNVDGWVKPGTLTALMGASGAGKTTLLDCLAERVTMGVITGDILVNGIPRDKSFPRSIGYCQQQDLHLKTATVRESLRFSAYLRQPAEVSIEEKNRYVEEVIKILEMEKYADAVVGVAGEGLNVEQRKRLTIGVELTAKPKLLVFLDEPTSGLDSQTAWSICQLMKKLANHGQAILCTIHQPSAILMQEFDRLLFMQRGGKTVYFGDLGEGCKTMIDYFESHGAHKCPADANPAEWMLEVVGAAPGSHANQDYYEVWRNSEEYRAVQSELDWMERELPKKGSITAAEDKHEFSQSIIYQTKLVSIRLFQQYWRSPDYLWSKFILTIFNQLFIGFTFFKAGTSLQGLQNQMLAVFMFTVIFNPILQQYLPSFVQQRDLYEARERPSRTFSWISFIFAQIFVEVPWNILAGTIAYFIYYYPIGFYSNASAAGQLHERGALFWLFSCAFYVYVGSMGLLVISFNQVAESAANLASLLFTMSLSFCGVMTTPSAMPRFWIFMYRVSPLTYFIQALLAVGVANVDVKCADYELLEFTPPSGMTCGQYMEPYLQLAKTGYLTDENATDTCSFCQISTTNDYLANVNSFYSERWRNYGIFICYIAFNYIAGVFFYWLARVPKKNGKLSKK

With `C/C=C/C/C=C/CCC(=O)[C@H]1O[C@H]1C(N)=O` [Cerulenin, cerulenin], the MIC in data set [1] (W303-1A + pYI (wild strain), 32° C., two days, read-out: MIC) was 0.8 µg/mL; in data set [2] (KHW1 + pYI, 32° C., two days, read-out: MIC) it was 0.4 µg/mL; in data set [3] (KHW3 + pYI, 32° C., two days, read-out: MIC), 0.2 µg/mL; in data set [4] (KHW3 + pYI-PDR5, 32° C., two days, read-out: MIC) it was 0.8 µg/mL; in data set [5] (KHW4 + pYI, 32° C., two days, read-out: MIC), 0.4 µg/mL; in data set [6], 0.6 µg/mL. Also, the “Increase of sensitivity of SYR1 gene disruption strain (KHW1+pYI) compared with wild strain (W303-1A+pYI)” value in data set [2] turned out to be 2 fold. Moreover, the “Increase of sensitivity of triple gene disruption strain KHW3 compared with wild strain” value in data set [3] is given as 4 fold. For the same molecule, the “Growth inhibition of KHW3+pYI-PDR5 by sole drug in medium” value in data set [7] is on record as “not inhibited”.

On to `C[C@@H]1C[C@@H]([C@H](O)CC2CC(=O)NC(=O)C2)C(=O)[C@@H](C)C1` [Cycloheximide, cycloheximide], for which the minimum inhibitory concentration (MIC) in data set [1] is 0.16 µg/mL; in data set [2] it was 0.04 µg/mL; in data set [3], 0.01 µg/mL; in data set [4] it was 0.16 µg/mL; in data set [5], 0.02 µg/mL; in data set [6], above 0.32 µg/mL. In addition, the “Increase of sensitivity of SYR1 gene disruption strain (KHW1+pYI) compared with wild strain (W303-1A+pYI)” value in data set [2] is on record as 4 fold. Besides, in data set [3], the “Increase of sensitivity of triple gene disruption strain KHW3 compared with wild strain” value amounted to 16 fold. Also, in data set [7], the “Growth inhibition of KHW3+pYI-PDR5 by sole drug in medium” value is on record as “not inhibited”.

Take `C=CC[C@@H]1/C=C(\C)C[C@H](C)C[C@H](OC)[C@H]2O[C@@](O)(C(=O)C(=O)N3CCCC[C@H]3C(=O)O[C@H](/C(C)=C/[C@@H]3CC[C@@H](O)[C@H](OC)C3)[C@H](C)[C@@H](O)CC1=O)[C@H](C)C[C@@H]2OC` [FK 506]: the “Growth inhibition of KHW3+pYI by test substance alone (cytotoxicity)” value in data set [8] is recorded as “did not inhibit the growth of KHW3+pYI”.
